Test system: subjects with mild bronchial asthma
Experiment: Lung function (FEV-1 and PEF by spirometry) after a single inhaled dose in mild asthmatics
Format: in vivo, human
Details: single 5 ml inhaled dose
Experimental: Three concentrations of sodium pyruvate were studied; 0.5 mM, 1.5 mM and 5.0 mM. Sixty (60) subjects completed the study protocol. The 60 subjects included fifteen (15) non-asthmatic control individuals and forty-five (45) individuals with mild bronchial asthma. […] The total subject population was composed of 40 females and 20 males with a mean population age of 36.6 years (range of 18-66 years).
Individuals with mild bronchial asthma were divided into three groups of 15 subjects; each group received one of the three concentrations of sodium pyruvate. Each subject each inhaled a single dose of physiological saline (Visit 1) and on a return visit inhaled a single dose of 5.0 ml of one of the concentrations of sodium pyruvate (Visit 2).
Lung function assessments and vital signs were monitored at baseline (pre-dose) and at 15 minutes, 30 minutes 1 hour, 2 hours and 4 hours post administration. On a return visit (Visit 2), each subject inhaled a single 5 ml dose of sodium pyruvate in physiological saline. The physiological lung functions assessed included Forced Expiratory Volume in One Second (FEV-1) and Peak Expiratory Flow (PEF).
An FEV-1 and PEF values are obtained during routine spirometry testing. FEV-1 is the volume of air expelled in the first second of a forced expiration starting from full inspiration. It is the most widely accepted indicator of obstructive lung disease severity and used because it is objective and reproducible. PEF is the greatest flow rate that can be sustained for 10 milliseconds on forced expiration from full inflation of the lungs. Changes of greater than 10% FEV-1 and greater than 25% in PEF are generally accepted as clinically relevant ant were used as standards in data evaluation for this study.

SMILES: CC(=O)C(=O)[O-].[Na+] [sodium pyruvate]
- percent change in FEV-1 (0.5 mM sodium pyruvate, 15 minutes (p=0.012), 30 minutes (p=0.039), 1 hour (p=0.054), 2 hours (p=0.0001), compared to inhalation of physiological saline): greater than 10%
- percent change in PEF (0.5 mM sodium pyruvate, 15 minutes (p=0.014), 30 minutes (p=0.027), 1 hour (p=0.012), 2 hours (p=0.024), 4 hours (p=0.018), compared to inhalation of physiological saline): greater than 25%
- change in FEV-1 (1.5 mM sodium pyruvate): No significant change
- change in PEF (1.5 mM sodium pyruvate): No significant change
- change in FEV-1 (5.0 mM sodium pyruvate): No significant change
- change in PEF (5.0 mM sodium pyruvate): No significant change

Reference: US6623723B2, “Method for treating bronchial constriction and bronchospasm” (Cellular Sciences Inc., priority 2001, dated 2003)
